From patent US11447533B2, “Antimicrobial and anticancer peptides and conjugates and compositions, methods, articles and kits relating thereto” (George Mason Research Foundation, Inc., priority 2018, dated 2022)

Legend:
[1] = Endotoxin binding: competitive displacement of BODIPY TR-Cadaverine from LPS; parameters: species or system Escherichia coli; conditions: 5 μM peptide, 10 μM BC, 10 μg/mL LPS, low ionic-strength 10 mM Na-PO4
Method: FIGS. 2A-2B are graphs showing endotoxin binding. The figures depict the competitive displacement of BC from LPS/LTA by the peptides. 5 μM of each peptide was incubated with 10 μM BC and 10 μg/mL LPS from E. coli (0111:B4) or LTA from S. aureus. Fluorescence intensity was measured at excitation=580 nm and emission=620 nm. 10 μM BC without endotoxin was used as 100% displacement while 10 μM BC with 10 μg/mL LPS/LTA without any peptide as 0% displacement and the % displacement of BC by each peptide was calculated accordingly. […] had been used as a positive control. The horizontal dotted line coincides with the % displacement of BC by ATRA1 on the y-axis.
FIGS. 6A-6B are graphs showing endotoxin (LPS (FIG. 6A) and LTA (FIG. 6B)) binding. Competitive displacement of BC from LPS/LTA. In each case, 5 μM peptide was incubated with 10 μM BC and 10 μg/mL LPS from E. coli (0111:B4) or LTA from S. aureus. Fluorescence intensity was measured using excitation=580 nm and emission=620 nm. As a positive control 10 μM BC without endotoxin was used as a reference for 100% displacement while 10 μM BC with 10 μg/mL LPS/LTA without any peptide as a negative control and a reference for 0% displacement. These controls were used to calculate % BC displacement for each peptide.
Endotoxin Binding. The binding of endotoxin (LPS/LTA) was evaluated using a fluorogenic conjugateBODIPY TR-Cadaverine (BC). BC binds endotoxin loses its fluorescence. The peptide competitively displaces BC from endotoxin and the fluorescence is reestablished. Competitive inhibition of endotoxin-BC binding was utilized due to presence of peptides already in complexion with endotoxin. 25 μL of 20 μM of peptides in 10 mM Na—PO4 buffer were incubated with 25 μL of LPS (40 μg/mL) or LTA (40 μg/mL) for 15 min and then added with 50 μL of BC (20 uM). Peptides bind to LPS or LTA and competitively prevents BC bind to the endotoxin. BC loses its fluorescence on binding to endotoxin. The fluorescence intensity of the unbound BC was measured at excitation=580 nm and emission=620 nm.
BC contains two functional moieties: BODIPY (boron-dipyrromethene) and cadaverine connected via a carboxamide. BODIPY is the fluorophore of BC and fluoresces in the free state in solution but loses fluorescence when bound to LPS/LTA. The competitive displacement of BC from LPS/LTA by AMPs and thus regeneration of the fluorescence has frequently been used to estimate the binding strength of AMPs with LPS/LTA. In the present studies, 5 μM of each peptide was used to displace BC from LPS/LTA. […] Such observation contradicts the initial assumption that substitution of Lys with arginine would result in increased efficiency of LPS binding. However, with sequential substitutions of Lys with arginine, starting with ATRA1-AR, peptide variants show increased LPS binding with each additional arginine substitution. In terms of LPS binding: ATRA1-AR<ATRA1-AR2<ATRA1-AR3. In ATRA1-R3, the lysine residues at 9th, 5th and 1st positions of ATRA1 were substituted with arginine. In ATRA1-R6 all of the lysine residues were replaced with arginine.

[2] = system: E. coli ATCC 25922; assay: Antimicrobial efficacy (resazurin virtual colony count); format: cell-based, Escherichia coli; conditions: pH 7.4
Method: Antimicrobial Studies. The phosphate buffers used for antimicrobial assays were supplemented with non-nitrogenous energy source, 0.1% (w/v) glucose. To conduct antimicrobial assays, bacterial strains were first suspended in respective buffers. E. coli (ATCC 25922) and B. cereus (ATCC 11778) were grown in MHB II up to OD600 nm˜1 and stored as frozen stock in 20% glycerol at −80° C. Occasionally they were thawed and enumerated by serial dilution and spreading on MHB II agar plates. The concentrations of the frozen stocks of E. coli and B. cereus strains were 1.0-1.1*10^8 CFU/mL with OD600 nm˜0.8. In case of other bacterial strains, they were grown on the days of experiment up to OD600 nm˜1-1.5 and then adjusted to OD600 nm˜0.8. The growth media of the drug-resistant bacterial strains were supplemented with few of the respective antibiotics against which they are resistant. 200 μL of the 0.8 OD600 nm culture were added to 10 mL of the respective buffer to obtain a suspension which was used to incubate with equal volumes of peptide solution in the same buffer.
Antimicrobial assays in different phosphate buffers and serum were conducted by adapting, with necessary modifications a fast high-throughput method based on Virtual Colony Count technique and later modified by incorporating the use of resazurin. At first serial dilution of a microbial strain in respective buffer was poured in the wells of 96 well polypropylene microplate and was then added with same volume of 2× MHB II supplemented with 80 μg/mL resazurin and incubated at 35° C. in a Gemini EM Microplate Reader (Molecular Devices) overnight with intermittent shaking. As the microbe grows it reduces non-fluorescent resazurin to fluorescent resorufin and the fluorescent intensity of each well were measured (excitation=570 nm, emission=590 nm) each 5 min for 15 hours. The time (t, min) to reach a certain fluorescence (RFU=20000 with respect to the starting fluorescence) was correlated with the initial bacterial concentration (in CFU/mL) in the particular well to obtain a calibration plot of the form: Log([Bacteria],CFU/mL)=b+m*t Equation 4: […]
To obtain antimicrobial efficacy of the peptides, 50 μL of serially diluted peptide in a buffer was incubated with 50 μL microbial suspension in the same buffer for 3 hours in black polypropylene 96 well plate. After incubation the wells were added with 100 μL of 2× MHB II supplemented with 80 μg/mL resazurin and then incubated with continuous fluorescence reading for overnight time period as described earlier. The surviving microbial population (CFU/mL) in each well were calculated by first finding the time to reach a fluorescence of RFU=20000 and the correlation (4) for the specific microbial strain and buffer. % Survival represents the proportion of viable cells in peptide treated cells relative to cells treated with the respective buffer alone. Equation 5: […]
Finally, the antimicrobial effectiveness of each peptide against the particular microbial strain in the specific buffer was determined by plotting % microbial survival as a function of the log of the concentration of the peptide and fitting the resulting data to a variable-slope sigmoidal regression model (equation 6). In this equation, log(EC50) represents the log of the concentration of the peptide required to kill half of the microbial population, where Smin and Smax correspond to the minimal and maximal microbial survival values (respectively), and H, Hill slope, is the parameter defining the steepness of the transition slopes of sigmoidal survival curves. % Microbial survival=Smin+(Smax−Smin)/(1+10^log(EC^50^)-log[peptide]*H) Equation 6: […]
The antimicrobial efficacies of the peptides were first tested against the model Gram-negative bacteria, E. coli ATCC 25922, in different phosphate buffers having varied ionic strengths and compositions. The phosphate buffers that were used included 10 mM sodium phosphate (calculated ionic strength˜25 mM), PBS and DPBS. […]

[3] = system: E. coli ML35p outer membrane; assay: NPN assay, outer membrane perturbation; format: cell-based, Escherichia coli; conditions: DPBS; 25 μM peptide; 25 μM PMB = 100%
Method: (§1) Interactions with Bacterial Membranes. Interaction of the peptides with bacterial membranes in different phosphate buffers were evaluated using E. coli ML35p, constructed in our laboratory. At first, competent cells of E. coli ML35 were produced by conventional competent cell preparation method, then transformed with pBR322 plasmid. Transformed colonies were selected after growing on Luria-agar containing 50 μg/mL ampicillin. A single transformed colony was grown in presence of ampicillin first in Luria broth and then in MHBII and stored as 20% glycerol stock at −80° C. This frozen stock, on the day of the experiment, was thawed and grown in MHBII containing ampicillin up to OD600 nm=0.8-0.9, washed with PBS and then suspended in the respective buffer up to the required OD600 nm for use.
NPN Assay. The outer membrane perturbation of bacteria was evaluated by incubating E. coli ML35p with peptides in presence of NPN. 100 mM NPN in acetone was supplemented proportionately to a bacterial suspension of OD600 nm˜0.5 to achieve a final concentration of 20 μM of NPN and the mixture was equilibrated for 30 mins. Then, 90 μL of the bacterial suspension containing 20 μM NPN was added with 10 μL of 250 μM peptide (10×) solution in water and scanned for fluorescence intensity (excitation=350 nm, emission=420 nm). The % Perturbation was calculated by considering PMB to be causing 100% Perturbation and water (without peptide) as 0% Perturbation. Each peptide was tested in triplicate in each of the three phosphate buffers used.
When peptides partition from the bulk aqueous environment to the cellular membranes, they may cause small defects in the membrane organization, a signature of adsorption of the peptides into the membranes. Such small defects are called membrane perturbations and can be evaluated by utilizing molecular probes. One such molecular probe is NPN, which is a hydrophobic molecule and is usually repelled to enter the hydrophobic interiors of the membrane by the polar headgroups of membrane-lipids. However, when small defects and gaps are caused during the adsorption of the peptides into the membranes, NPN can enter through those defects and in the hydrophobic environment of the membrane interior the molecule fluoresces, which can be measured for quantification of the extent of membrane-perturbation and peptide adsorption in the cellular membrane.

[4] = system: E. coli ML35p outer membrane; assay: Outer membrane disruption (β-lactamase leakage, nitrocefin); format: cell-based, Escherichia coli; conditions: DPBS
Method: as §1
Membrane Disruptions. The outer and the inner membrane disruptions by the peptides were evaluated by incubating bacterial suspension with peptides and then measuring the activity of enzymes leaked out of the cells. 100 μL of 10× concentration of peptide in water was incubated with 900 μL bacterial suspension (OD600 nm˜0.1) in respective buffer for 3 hours at room temperature with gentle rotation. Then the cells and debris were separated by centrifugation (10000 r.p.m. for 30 mins) and the supernatant was collected and tested for activity of enzymes that had leaked out of the bacterial cells. HCMAB was used as a positive control to cause 100% membrane disruption and water as a negative causing 0% disruption.
The outer membrane disruption was tested by using the activity of beta-lactamase present in the periplasmic space of E. coli ML35p. Peptides when disrupt the outer membrane enough to cause beta-lactamase to come out, the degree of disruption can be measured by the virtue of the kinetics of the enzyme and using a chromogenic cephalosporin substrate called nitrocefin. β-lactamase mediated hydrolyzed product of nitrocefin has an absorbance αmax=486 nm. Supernatant collected from the incubation of peptide with bacteria was added with nitrocefin solution in DPBS and incubated at 35° C. and continuous absorbance readings. The slope of the linear section of the absorbance curve (absorbance vs time), was used as a measure of membrane disruption and the % Disruption was calculated as: Equation 7: […]
Some of the ATRA1-variants were further tested for their ability to disrupt outer and inner membranes to form pores or disruptions sufficiently large so as to allow enzymes to leak out of their cellular compartments (cytoplasm or periplasmic space). For this purpose, two reporter molecules were used with one being the substrate of a cytoplasmic enzyme and the other was a substrate for an enzyme residing in the periplasmic space. One of the reporters, nitrocefin was the substrate for β-lactamase, which is present in the bacterial periplasm, whereas the other molecule, ONPG, was the substrate for β-galactosidase, which resides in the cytoplasm of E. coli ML35p strain. […] Similarly, β-galactosidase activity in the supernatants is evidence of inner membrane disruption and possible pore formation. When the aforesaid supernatants were tested for nitrocefin and ONPG hydrolysis, the corresponding absorbance increased with time (data not shown) indicating β-lactamase and β-galactosidase activity, respectively, and thus disruption of both the inner and outer membranes. The slopes of the increase in absorbance as a function of time provides the rate of enzyme activity. The enzyme activities in supernatants collected after incubation of bacteria with the quaternary ammonium surfactant, hexadecyltrimethylammonium bromide (HCMAB) was used as an internal reference for 100% membrane disruption. Enzyme activity for supernatants collected for cells incubated in the absence of peptide provided a reference for 0% membrane disruption. Bee venom peptide melittin was used as a positive control. […]

[5] = PBS (high / physiologically relevant ionic strength)

Sequence	LPS binding (BC displacement), in words [1]	antimicrobial efficacy, in words ([2]; DPBS (with Ca++ and Mg++))	antimicrobial efficacy, in words [2, 5]	membrane perturbation with respect to PMB [3]	time to reach maximum signal for nitrocefin hydrolysis [4]
KRAKRFFKRLK (SEQ ID NO: 7) [ATRA1-AR2]	ATRA1-AR<ATRA1-AR2<ATRA1-AR3	lose activity in DPBS	more potent than ATRA1-A	–	–
KRWKKFFKKWK (SEQ ID NO: 12) [ATRA1-W2]	–	–	–	higher OM perturbation than ATRA1	–
KRWKKWFKKWK (SEQ ID NO: 13) [ATRA1-W3]	–	–	–	higher OM perturbation than ATRA1	approximately 30 mins
RRAKRFFKRLK (SEQ ID NO: 8) [ATRA1-AR3]	ATRA1-AR<ATRA1-AR2<ATRA1-AR3	lose activity in DPBS	greater effectiveness than both ATRA1-A and ATRA1	–	–
